Publication PMC12470154, “In Vitro Evaluation of Antimicrobial Amyloidogenic Peptides for the Treatment of Early and Mature Bacterial Biofilms” (International Journal of Molecular Sciences, 2025)

Tests used:
[1] = system: P. aeruginosa (2943 strain); assay: Mature biofilms, crystal violet staining; format: cell-based, Pseudomonas aeruginosa; set-up: key: ↓: Decrease in the parameter (optical density) compared to the negative control; −: No decrease in the optical density; ↑: Reverse effect (increase in the optical density compared to the control); conditions: mature biofilm: peptide added after 24 h, further 24 h, 0.01-10 mg/mL
Procedure: (§1) After 24 h of incubation, the medium was removed. To assess the total biofilm biomass, the wells were rinsed with sterile PBS solution and stained with 0.1% crystal violet. The dye bound to the surface was then removed using 95% ethanol. To assess the presence of metabolically active cells, 0.3% MTT (PanEco Ltd., Moscow, Russia) solution was added to each well, and the plates were incubated at 37 °C for 2 h. After incubation, the MTT solution was removed, 150 µL of DMSO (Chimmed, Moscow, Russia) and 25 µL of glycine buffer were added to each well, and the plates were left at room temperature for 15 min. The resulting solutions were transferred to a flat-bottom 96-well plate, and optical density was measured at 595 nm.
(§2) A stationary-phase culture of the tested strain was diluted 100-fold in fresh medium (200 µL per well) and added to the wells of a 96-well round-bottom plate. […] After another 24 h, the medium was removed and the wells were rinsed with sterile PBS to eliminate planktonic cells. The procedures for assessing total biofilm biomass and cell metabolic activity using crystal violet and MTT assays were performed in the same manner as described above for early-stage biofilm experiments.

S. aureus (129B strain) [2] = assay: Mature biofilms, MTT assay; format: cell-based, Staphylococcus aureus; conditions: mature biofilm
Procedure: as §1, §2

S. aureus (129B strain) [3] = assay: Mature biofilms, MTT assay; format: cell-based, Staphylococcus aureus; set-up: key: ↓: Decrease in the parameter (optical density) compared to the negative control; −: No decrease in the parameter; ↑: Reverse effect (increase in the optical density compared to the control); conditions: mature biofilm: peptide added after 24 h, further 24 h; 0.01-10 mg/mL
Procedure: as §1, §2

S. aureus (129B strain) [4] = assay: Mature biofilms, crystal violet staining; format: cell-based, Staphylococcus aureus; set-up: key: ↓: Decrease in the parameter (optical density) compared to the negative control; −: No decrease in the optical density; ↑: Reverse effect (increase in the optical density compared to the control); conditions: mature biofilm: peptide added after 24 h, further 24 h; 0.01-10 mg/mL
Procedure: as §1, §2

MRSA (SA 180-F strain) = assay: Mature biofilms, MTT assay; format: cell-based, methicillin-resistant Staphylococcus aureus; set-up: key: ↓: Decrease in the parameter (optical density) compared to the negative control; −: No decrease in the optical density; ↑: Reverse effect (increase in the optical density compared to the control); conditions: mature biofilm: peptide added after 24 h, further 24 h; 0.01-10 mg/mL
Procedure: as §1, §2

With “RKKRRQRRRGGGGVVVHINGGKFGGGGSRQIKIWFQNRRMKWKK [R44K^S]” as the sequence, how does the “change of optical density after crystal violet staining vs negative control” value ([1]; listed as R44K^P) read?
The value was “−”.

Which “metabolic activity of cells within mature biofilms (MTT)” value (S. aureus (129B strain) [2]; 0.01, 0.1, 1, and 10 mg/mL) does the source give for “ITDFGIFIGLGGGGSRQIKIWFQNRRMKWKK [I31K^P]” here?
The value was “decreased the metabolic activity”.

And the “concentration given with ↓ (MTT)” value (S. aureus (129B strain) [2])?
The value was 0.01 mg/mL.

And the “change of optical density after MTT assay vs negative control” value (S. aureus (129B strain) [3])?
The value was “↓ (0.01 mg/mL)”.

What does the source list for “RKKRRQRRRGGGGVTDFGVFVEI [R23I^T, TAT cell-penetrating peptide linked via glycine linker to amyloidogenic fragment of S1 ribosomal protein of T. thermophilus]”?
change of optical density after crystal violet staining vs negative control (S. aureus (129B strain) [4]): −; change of optical density after MTT assay vs negative control (MRSA (SA 180-F strain)): −; change of optical density after crystal violet staining vs negative control [1]: −
